3 compounds from patent publication US8410302B2, “Methoxyimino compounds and fungicide composition comprising same” (Kyung Nong Corporation, priority 2007, dated 2013) can be followed below.

Structures are written as SMILES. Read-outs that look alike come from different tables or passages of the source.

The subject of assay [1] is Pyricularia oryzae Carvara KA301. Description: whole plant or invertebrate. The class given is in vivo. Conditions: Pyricularia oryzae, read-out: RCB control value (C.V.).
The next assay has as its system Botrytis cinerae. Description: Fungicidal activity against cucumber gray mold rot (CGM) disease, control value. Conditions: Botrytis, read-out: CGM control value (C.V.). The class given is in vivo.
In another assay the test system is Phytophthora infestans. Description: whole plant or invertebrate. The format is in vivo. To be noted: Phytophthora infestans, in Solanum lycopersicum, read-out: TLB control value (C.V.).
A further assay has as its system Puccinia recondita. Description: Fungicidal activity against wheat leaf rust (WLR) disease, control value. To be noted: read-out: WLR control value (C.V.). The class given is in vivo.
The subject of a further assay is Erysiphae graminis. Nature of the assay: Fungicidal activity against barley powdery mildew (BPM) disease, control value. The class given is in vivo. Conditions: 168 h, read-out: BPM control value (C.V.).
For another assay, the system named is Rhizoctonia solani AG-1. Nature of the assay: Fungicidal activity against rice sheath blight (RSB) disease, control value. To be noted: Rhizoctonia solani, AG1, in Oryza sativa, read-out: RSB control value (C.V.).
[2] abbreviates: Hordeum vulgare, barley powdery mildew.

For `CO/N=C(/C(=O)OC)c1ccccc1COc1cc(C=C(Cl)Cl)ccc1OC` [Example 47, methyl-(E)-2-(2-((5-(2,2-dichlorovinyl)-2-methoxyphenoxy)methyl)phenyl)-2-methoxyiminoacetate], the pest or weed control at 2 ppm in assay [1] was determined as 80%; in the assay on Phytophthora infestans, 85%; in the assay on Puccinia recondita (wheat leaf rust) it was 100%; with Erysiphae graminis (setting [2]) it was 100%; with Rhizoctonia solani AG-1 it was 95%. Also, the pest or weed control at 10 ppm in assay [1] came to 99%; in the assay with Phytophthora infestans, 95%; in the assay on Puccinia recondita (wheat leaf rust), 100%; in the assay on Erysiphae graminis (setting [2]), 100%; with Rhizoctonia solani AG-1 it was 100%. Moreover, the pest or weed control at 50 ppm (in assay [1]; in the assay on Phytophthora infestans; in the assay on Puccinia recondita (wheat leaf rust); in the assay with Erysiphae graminis (setting [2]); in the assay on Rhizoctonia solani AG-1) was 100% throughout. Besides, the pest or weed control at 100 ppm came out at 100% in assay [1]; 55% in the assay on Botrytis cinerae (cucumber gray mold rot); 100% in the assay on Phytophthora infestans; 100% in the assay on Puccinia recondita (wheat leaf rust); 100% in the assay on Erysiphae graminis (setting [2]); 100% with Rhizoctonia solani AG-1.
In the case of `CNC(=O)/C(=N/OC)c1ccccc1COc1ccc(F)cc1C=C(Cl)Cl` [Example 56, (E)-2-(2-((2-(2,2-dichlorovinyl)-4-fluorophenoxy)methyl)phenyl)-2-methoxyimino-N-methylacetamide], the pest or weed control at 2 ppm in assay [1] came out at 97%; with Phytophthora infestans it was 95%; in the assay on Puccinia recondita (Puccinia recondita), 100%; in the assay on Erysiphae graminis, 100%; with Rhizoctonia solani AG-1, 95%. Besides, the pest or weed control at 10 ppm (in assay [1]; in the assay on Phytophthora infestans; in the assay on Puccinia recondita (Puccinia recondita); with Erysiphae graminis; in the assay with Rhizoctonia solani AG-1) was 100% throughout. For the same compound, the pest or weed control at 50 ppm in assay [1] was found to be 100%; with Botrytis cinerae (50 ppm), 20%; in the assay with Phytophthora infestans, 100%; with Puccinia recondita (Puccinia recondita) it was 100%; in the assay with Erysiphae graminis, 100%; with Rhizoctonia solani AG-1 it was 100%. The pest or weed control at 100 ppm worked out at 100% in assay [1]; 65% in the assay on Botrytis cinerae; 100% with Phytophthora infestans; 100% with Puccinia recondita (Puccinia recondita); 100% in the assay with Erysiphae graminis; 100% in the assay on Rhizoctonia solani AG-1.
Turning to `CNC(=O)/C(=N/OC)c1ccccc1COc1ccc(C=C(Cl)Cl)cc1Cl` [Example 40, (E)-2-(2-((2-chloro-4-(2,2-dichlorovinyl)phenoxy)methyl)phenyl)-2-methoxyimino-N-methylacetamide], the pest or weed control at 2 ppm (in assay [1]; in the assay on Puccinia recondita (wheat leaf rust); with Erysiphae graminis (setting [2]); in the assay on Rhizoctonia solani AG-1) was 100% each time. The pest or weed control at 10 ppm (in assay [1]; in the assay with Puccinia recondita (wheat leaf rust); in the assay on Erysiphae graminis (setting [2]); with Rhizoctonia solani AG-1) was 100% each time. In addition, the pest or weed control at 50 ppm (in assay [1]; in the assay on Puccinia recondita (wheat leaf rust); in the assay with Erysiphae graminis (setting [2]); in the assay with Rhizoctonia solani AG-1) was 100% in each case. Further, the pest or weed control at 100 ppm in assay [1] was 100%; in the assay with Botrytis cinerae (cucumber gray mold rot), 10%; in the assay on Phytophthora infestans, 30%; in the assay on Puccinia recondita (wheat leaf rust), 100%; in the assay on Erysiphae graminis (setting [2]) it was 100%; in the assay on Rhizoctonia solani AG-1 it was 100%.
